Experimental data taken from ChEMBL document CHEMBL1156714, “Microwave induced synthesis of novel 8,9-dihydro-7H-pyrimido[4,5-b][1,4]diazepines as potential antitumor agents” (2008).
Activity calls are given as the source filed them. The calls are words filed in the database; no cut-off is given here.

Key:
IGROV-1 = experiment: Growth inhibition of human IGROV1 cells after 48 hrs by SRB assay; assay type: functional; conditions: IGROV-1, 48 h; for CC50: read-out: LC50 (the source's name)
[1] = Growth inhibition of human HL60(TB) cells after 48 hrs by SRB assay; assay type: functional, HL-60(TB)
UO-31 = experiment: Growth inhibition of human UO31 cells after 48 hrs by SRB assay; assay type: functional; conditions: UO-31, 48 h; for CC50: read-out: LC50 (the source's name)
RXF 393 [2] = experiment: Growth inhibition of human RXF393 cells after 48 hrs by SRB assay; assay type: functional; conditions: RXF 393, 48 h
NCI-60 = experiment: Growth inhibition of human NCI-60 cells at 1.0 uM; assay type: functional, cell-based
HCT-116 = experiment: Growth inhibition of human HCT116 cells after 48 hrs by SRB assay; assay type: functional; conditions: HCT-116, 48 h; for CC50: read-out: LC50 (the source's name)
Hs-578T = experiment: Growth inhibition of human HS578T cells after 48 hrs by SRB assay; assay type: functional; conditions: for CC50: read-out: LC50 (the source's name)
RPMI-8226 = experiment: Growth inhibition of human RPMI8226 cells after 48 hrs by SRB assay; assay type: functional; conditions: RPMI-8226, 48 h; for CC50: read-out: LC50 (the source's name)
HCT-15 = experiment: Growth inhibition of human HCT15 cells after 48 hrs by SRB assay; assay type: functional; conditions: HCT-15, 48 h; for CC50: read-out: LC50 (the source's name)
NCI-H522 = experiment: Growth inhibition of human NCI-H522 cells after 48 hrs by SRB assay; assay type: functional; conditions: NCI-H522, 48 h; for CC50: read-out: LC50 (the source's name)
BT-549 = experiment: Growth inhibition of human BT549 cells after 48 hrs by SRB assay; assay type: functional; conditions: BT-549, 48 h
SR = experiment: Growth inhibition of human SR cells after 48 hrs by SRB assay; assay type: functional
HCC 2998 = experiment: Growth inhibition of human HCC2998 cells after 48 hrs by SRB assay; assay type: functional; conditions: HCC 2998, 48 h
LOX IMVI = experiment: Growth inhibition of human LOX IMVI cells after 48 hrs by SRB assay; assay type: functional
SW-620 = experiment: Growth inhibition of human SW620 cells after 48 hrs by SRB assay; assay type: functional; conditions: SW-620, 48 h
NCI/ADR-RES = experiment: Growth inhibition of human NCI/ADR-RES cells after 48 hrs by SRB assay; assay type: functional
PC-3 = experiment: Growth inhibition of human PC3 cells after 48 hrs by SRB assay; assay type: functional; conditions: PC-3, 48 h
KM12 = experiment: Growth inhibition of human KM12 cells after 48 hrs by SRB assay; assay type: functional; conditions: KM12, 48 h
MOLT-4 = experiment: Growth inhibition of human MOLT4 cells after 48 hrs by SRB assay; assay type: functional; conditions: MOLT-4, 48 h
[3] = Growth inhibition of human OVACR4 cells after 48 hrs by SRB assay; assay type: functional
MDA-MB-468 = experiment: Growth inhibition of human MDA-MB-468 cells after 48 hrs by SRB assay; assay type: functional; conditions: MDA-MB-468, 48 h
ACHN = experiment: Growth inhibition of human ACHN cells after 48 hrs by SRB assay; assay type: functional
HT-29 = experiment: Growth inhibition of human HT29 cells after 48 hrs by SRB assay; assay type: functional; conditions: HT-29, 48 h
A498 = experiment: Growth inhibition of human A498 cells after 48 hrs by SRB assay; assay type: functional; conditions: A498, 48 h
COLO 205 = experiment: Growth inhibition of human COLO205 cells after 48 hrs by SRB assay; assay type: functional; conditions: COLO 205, 48 h
NCI-H322M = experiment: Growth inhibition of human NCI-H322M cells after 48 hrs by SRB assay; assay type: functional
SF-295 = experiment: Growth inhibition of human SF295 cells after 48 hrs by SRB assay; assay type: functional; conditions: SF-295, 48 h
MCF7 = experiment: Growth inhibition of human MCF7 cells after 48 hrs by SRB assay; assay type: functional; conditions: MCF7, 48 h
[4] = Growth inhibition of human OVACR3 cells after 48 hrs by SRB assay; assay type: functional
RXF 393 [5] = experiment: Growth inhibition of human […] cells after 48 hrs by SRB assay; assay type: functional; conditions: RXF 393, 48 h
DU-145 = experiment: Growth inhibition of human DU145 cells after 48 hrs by SRB assay; assay type: functional; conditions: DU-145, 48 h
[6] = Growth inhibition of human […] cells after 48 hrs by SRB assay; assay type: functional
U-251 = experiment: Growth inhibition of human U251 cells after 48 hrs by SRB assay; assay type: functional; conditions: U-251, 48 h
MDA-MB-231 = experiment: Growth inhibition of human MDA-MB-231 cells after 48 hrs by SRB assay; assay type: functional; conditions: MDA-MB-231, 48 h
SNB-75 = experiment: Growth inhibition of human SNB75 cells after 48 hrs by SRB assay; assay type: functional; conditions: SNB-75, 48 h
K562 = experiment: Growth inhibition of human K562 cells after 48 hrs by SRB assay; assay type: functional; conditions: K562, 48 h
A549 = experiment: Growth inhibition of human A549 cells after 48 hrs by SRB assay; assay type: functional; conditions: A549, 48 h
[7] = Growth inhibition of human OVACR5 cells after 48 hrs by SRB assay; assay type: functional
SF-268 = experiment: Growth inhibition of human SF268 cells after 48 hrs by SRB assay; assay type: functional; conditions: SF-268, 48 h
TK-10 = experiment: Growth inhibition of human TK10 cells after 48 hrs by SRB assay; assay type: functional; conditions: TK-10, 48 h
HOP-62 = experiment: Growth inhibition of human HOP62 cells after 48 hrs by SRB assay; assay type: functional; conditions: HOP-62, 48 h
[8] = read-out: LC50 (the source's name)

Nc1ncnc2c1N=C(c1ccc3c(c1)OCO3)CC(c1ccc([N+](=O)[O-])cc1)N2 (racemic)
GI50 (IGROV-1): 0.068 µM
CC50 (IGROV-1): 25.5 µM
LC100 [1]: >100 µM
GI50 ([1]; Homo sapiens, HL-60, 48 h): 13.1 µM
GI50 (UO-31): 18.1 µM
CC50 (UO-31): > 100 µM
GI50 (RXF 393 [2]): 7.19 µM
CC50 (RXF 393 [2]; [8]): > 100 µM
Activity (NCI-60): Active
GI50 (HCT-116): 18.2 µM
CC50 (HCT-116): > 100 µM
GI50 (Hs-578T): 9.18 µM
CC50 (Hs-578T): > 100 µM
GI50 (RPMI-8226): 0.19 µM
CC50 (RPMI-8226): > 100 µM
GI50 (HCT-15): 9.55 µM
CC50 (HCT-15): > 100 µM
GI50 (NCI-H522): 6.78 µM
CC50 (NCI-H522): > 100 µM
GI50 (BT-549): 1.68 µM
CC50 (BT-549; [8]): > 100 µM
GI50 (SR): 2.37 µM
LC50 (concentration killing 50% of cells) (SR): > 100 µM

Nc1ncnc2c1N=C(c1ccc3c(c1)OCO3)CC(c1ccc(Cl)cc1)N2 (racemic)
GI50 (IGROV-1): 0.35 µM
CC50 (IGROV-1): 42.8 µM
GI50 ([1]; Homo sapiens, HL-60, 48 h): 5.37 µM
CC50 ([1]; Homo sapiens, HL-60, 48 h, read-out: LC50 (the source's name)): > 100 µM
GI50 (UO-31): 7.48 µM
CC50 (UO-31): > 100 µM
GI50 (HCC 2998): 5.88 µM
LC50 (concentration killing 50% of cells) (HCC 2998): > 100 µM
GI50 (LOX IMVI): 10.1 µM
CC50 (LOX IMVI; [8]): > 100 µM
GI50 (SW-620): 4.91 µM
CC50 (SW-620; [8]): > 100 µM
GI50 (NCI/ADR-RES): 5.35 µM
CC50 (NCI/ADR-RES; [8]): > 100 µM
GI50 (PC-3): 9.06 µM
CC50 (PC-3; [8]): 50.8 µM
GI50 (KM12): 2.03 µM
CC50 (KM12; [8]): > 100 µM
Activity (NCI-60): Active
GI50 (HCT-116): 10.7 µM
CC50 (HCT-116): 47.5 µM
GI50 (MOLT-4): 5.85 µM
CC50 (MOLT-4; [8]): > 100 µM
GI50 [3]: 18.3 µM
LC50 [3]: > 100 µM
GI50 (Hs-578T): 1.07 µM
CC50 (Hs-578T): > 100 µM
GI50 (RPMI-8226): 1.5 µM
CC50 (RPMI-8226): > 100 µM
GI50 (MDA-MB-468): 10.1 µM
CC50 (MDA-MB-468; [8]): > 100 µM
GI50 (ACHN): 8.25 µM
LC50 (lethal concentration 50%) (ACHN): > 100 µM
GI50 (HT-29): 3.81 µM
CC50 (HT-29; [8]): > 100 µM
GI50 (A498): 5.94 µM
LC50 (A498): > 100 µM
GI50 (HCT-15): 3.14 µM
CC50 (HCT-15): 55.2 µM
GI50 (COLO 205): 15 µM
CC50 (COLO 205; [8]): > 100 µM
GI50 (NCI-H322M): 16.9 µM
CC50 (NCI-H322M; [8]): > 100 µM
GI50 (SF-295): 14.7 µM
LC50 (SF-295): > 100 µM
GI50 (MCF7): 3.61 µM
LC50 (MCF7): > 100 µM
GI50 [4]: 3.71 µM
LC50 [4]: 83 µM
GI50 (RXF 393 [5]): 2.51 µM
CC50 (RXF 393 [5]; [8]): 59.3 µM
GI50 (DU-145): 16.8 µM
CC50 (DU-145; [8]): 65.9 µM
GI50 [6]: 4.66 µM
CC50 [6, 8]: > 100 µM
GI50 (U-251): 6.19 µM
CC50 (U-251; [8]): 78.9 µM
GI50 (MDA-MB-231): 2.7 µM
CC50 (MDA-MB-231; [8]): 55.6 µM
GI50 (SNB-75): 5.22 µM
CC50 (SNB-75; [8]): > 100 µM
GI50 (NCI-H522): 2.37 µM
CC50 (NCI-H522): > 100 µM
GI50 (K562): 4.27 µM
LC50 (K562): > 100 µM
GI50 (A549): 11.6 µM
LC50 (A549): 78.3 µM
GI50 [7]: 18.3 µM
CC50 [7, 8]: > 100 µM
GI50 (SF-268): 8.52 µM
LC50 (50% lethal concentration) (SF-268): > 100 µM
GI50 (TK-10): 8.23 µM
CC50 (TK-10; [8]): > 100 µM
GI50 (HOP-62): 16.6 µM
CC50 (HOP-62; [8]): > 100 µM

COc1ccc(C2=Nc3c(N)ncnc3NC(c3ccc4c(c3)OCO4)C2)cc1 (racemic)
Activity (NCI-60): inactive

COc1ccc(C2CC(c3ccc4c(c3)OCO4)=Nc3c(N)ncnc3N2)cc1 (racemic)
Activity (NCI-60): inactive

Nc1ncnc2c1N=C(c1ccc(Cl)cc1)CC(c1ccc3c(c1)OCO3)N2 (racemic)
Activity (NCI-60): inactive

Nc1ncnc2c1N=C(c1ccc([N+](=O)[O-])cc1)CC(c1ccc3c(c1)OCO3)N2 (racemic)
Activity (NCI-60): inactive
